Laboratory results taken from PMC4696824 (PLoS ONE, 2015).

T1: cathepsin B-like cysteine peptidase (DCcathB) (Diaphorina citri, UniProt A0A0U4DX43)
T1 construct: mature peptide residues 70 to 374
T1 sequence (A0A0U4DX43 70-374): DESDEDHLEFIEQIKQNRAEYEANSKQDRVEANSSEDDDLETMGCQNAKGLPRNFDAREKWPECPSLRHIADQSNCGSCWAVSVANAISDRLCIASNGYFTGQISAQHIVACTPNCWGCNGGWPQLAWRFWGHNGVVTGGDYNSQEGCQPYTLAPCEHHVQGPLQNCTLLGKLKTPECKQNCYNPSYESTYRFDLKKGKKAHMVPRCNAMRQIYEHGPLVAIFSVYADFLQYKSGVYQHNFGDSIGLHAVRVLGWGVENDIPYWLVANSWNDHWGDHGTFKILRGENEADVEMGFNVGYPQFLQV

B1: cathepsin B-like cysteine peptidase (DCcathB) (Diaphorina citri) (protein)
chain: DESDEDHLEFIEQIKQNRAEYEANSKQDRVEANSSEDDDLETMGCQNAKGLPRNFDAREKWPECPSLRHIADQSNCGSCWAVSVANAISDRLCIASNGYFTGQISAQHIVACTPNCWGCNGGWPQLAWRFWGHNGVVTGGDYNSQEGCQPYTLAPCEHHVQGPLQNCTLLGKLKTPECKQNCYNPSYESTYRFDLKKGKKAHMVPRCNAMRQIYEHGPLVAIFSVYADFLQYKSGVYQHNFGDSIGLHAVRVLGWGVENDIPYWLVANSWNDHWGDHGTFKILRGENEADVEMGFNVGYPQFLQV
notes: mature peptide residues 70 to 374

How the values were obtained:
[1] = target: T1, cathepsin B-like cysteine peptidase (DCcathB); experiment: fluorogenic inhibition assay, Z-F-R-AMC substrate, purified recombinant enzyme; type: biochemical
[2] = substrate: Cc1cc(=O)oc2cc(NC(=O)[C@H](CCCNC(=N)N)NC(=O)[C@H](Cc3ccccc3)NC(=O)OCc3ccccc3)ccc12; experiment: fluorogenic substrate hydrolysis, Km, purified recombinant enzyme; type: biochemical, Diaphorina citri
[3] = substrate: Cc1cc(=O)oc2cc(NC(=O)[C@H](CCCNC(=N)N)NC(=O)[C@H](CCCNC(=N)N)NC(=O)OCc3ccccc3)ccc12; experiment: as above; type: biochemical, Diaphorina citri

Row | Molecule | IC50 [1] [nM] | Km [2] [µM] | Km [3] [µM]
1 | CCCNC(=O)[C@H]1O[C@@H]1C(=O)N[C@H](C(=O)N1CCC[C@H]1C(=O)O)[C@@H](C)CC [CA-074, N-(l-3-trans-propylcarbamoyloxirane-2-carbonyl)-L-isoleucyl-L-proline] | 0.095 | – | –
2 | CC(C)C[C@H](NC(=O)[C@H]1O[C@@H]1C(=O)O)C(=O)NCCCCN=C(N)N [E-64, L-trans-Epoxysuccinyl-leucylamido(4-guanidino)butane] | 14 | – | –
3 | B1 | – | 23.5 | 6.13
